Source: US3936439A, “2,6-Diaminonebularine derivatives” (Takeda Chemical Industries, Ltd., priority 1972, dated 1976)
Read-outs that look alike come from different tables or passages of the source.

Assays:
coronary artery = test: Test for coronary dilating action (intracoronary administration, coronary blood flow in anaesthetized dogs); type: in vivo; settings: 10 μg./dog directly into the coronary artery, potency of adenosine taken as unity
Protocol: Each of dogs weighing 7 to 17 kilograms was anaesthetized with pentobarbital sodium salt (30 mg./kg., intravenously) and under supportive respiration, a left thoractomy was performed at the fifth interspace.
The heart of each animal was exposed and perfused with the blood guided from the animal's own left carotid artery to the left coronary artery circumflex through a polyethylene catheter. The coronary blood flow was measured with an electromagnetic flowmeter interposed in the external phase of the circuitry.
Each of the test compounds was administered directly into the coronary artery through the polyethylene catheter at a dose of 10 μg./dog. The potency of each compound was expressed with the potency of adenosine being taken as unity.

rat platelets = test: Test for the action to inhibit the aggregation of rat platelets caused by adenosine-5'-diphosphate (method of Born and Cross); type: cell-based; settings: read-out: Inhibitory action (%)
Text: Test for the action to inhibit the aggregation of rat platelets caused by adenosine-5'-diphosphate

[1] = rat platelet-rich plasma, ADP-induced aggregation, concentration 15 μg/ml
[2] = rat platelet-rich plasma, ADP-induced aggregation, concentration 74 μg/ml
[3] = rat platelet-rich plasma, ADP-induced aggregation, concentration 370 μg/ml

For Nc1nc(N)c2ncn([C@@H]3O[C@H](CO)[C@@H](O)[C@H]3O)c2n1 [2,6-Diaminonebularine, 2,6-diaminonebularine], the Maximum coronary flow (coronary artery) was 0.50, the inhibition at 15 µg/mL (rat platelets; [1]) was 0% and the inhibition at 74 µg/mL (rat platelets; [2]) was 0%. For the same compound, the inhibition at 370 µg/mL (rat platelets; [3]) was 0%.
In the case of Nc1ncnc2c1ncn2[C@@H]1O[C@H](CO)[C@@H](O)[C@H]1O [Adenosine], the Maximum coronary flow (coronary artery) was 1.00, the inhibition at 15 µg/mL (rat platelets; Rattus norvegicus, Platelet) was 0% and the inhibition at 74 µg/mL (rat platelets; Rattus norvegicus, Platelet) was 0%. It also gave an inhibition at 370 µg/mL (rat platelets; Rattus norvegicus, Platelet) of 0%.
For Nc1nc(NC2CCCCC2)nc2c1ncn2[C@@H]1O[C@H](CO)[C@@H](O)[C@H]1O [N^2 -Cyclohexyl-2,6-diaminonebularine, N^2-cyclohexyl-2,6-diaminonebularine], the Maximum coronary flow (coronary artery) was 2.20, the inhibition at 15 µg/mL (rat platelets; [1]) was -32% and the inhibition at 74 µg/mL (rat platelets; [2]) was -60%. For the same compound, the inhibition at 370 µg/mL (rat platelets; [3]) was -95%.
CCNc1nc(N)c2ncn([C@@H]3O[C@H](CO)[C@@H](O)[C@H]3O)c2n1 [N^2 -Ethyl-2,6-diaminonebularine, N^2-ethyl-2,6-diaminonebularine] gave a Maximum coronary flow (coronary artery) of 0.91, an inhibition at 15 µg/mL (rat platelets; [1]) of -11% and an inhibition at 74 µg/mL (rat platelets; [2]) of -21%. For the same compound, the inhibition at 370 µg/mL (rat platelets; [3]) was -40%.
Nc1nc(Nc2ccccc2)nc2c1ncn2[C@@H]1O[C@H](CO)[C@@H](O)[C@H]1O [N^2 -Phenyl-2,6-diaminonebularine, N^2-phenyl-2,6-diaminonebularine] was tested, and the Maximum coronary flow (coronary artery) was 6.75, the inhibition at 15 µg/mL (rat platelets; [1]) was -38% and the inhibition at 74 µg/mL (rat platelets; [2]) was -52%. It also gave an inhibition at 370 µg/mL (rat platelets; [3]) of -85%.
With COc1ccc(Nc2nc(N)c3ncn([C@@H]4O[C@H](CO)[C@@H](O)[C@H]4O)c3n2)cc1 [N^2-(p-methoxyphenyl)-2,6-diaminonebularine] the Maximum coronary flow (coronary artery) was 2.37.
